The values that follow come from patent US12599672B2, “KRAS proteolysis targeting chimeras” (PAQ Therapeutics Inc., priority 2023, dated 2026).

The target of one assay is T1, KRAS G12D (Homo sapiens, UniProt P01116, G12D).
T1 construct: AsPc-1-KRAS (G12D)-HiBit-KI cell (Pharmaron); host or cells: AsPc-1-KRAS (G12D)-HiBit-KI cells (HiBiT knock-in at the endogenous KRAS locus)
Briefly: KRAS G12D HiBit assay. The following applies: AsPc-1-KRAS (G12D)-HiBit-KI cell, compound treatment for 24 hours; for DC50: absolute DC50. It counts as cell-based. In short, it runs like this:
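Cells were treated for 24 h with compounds in a 3-fold, 10-point dilution series from a 0.3 mM DMSO stock, then equilibrated 15 min at room temperature. KRAS G12D HiBiT levels were read by luminescence after lytic Nano-Glo HiBiT reagent with LgBiT; inhibition calculated relative to 0.1% DMSO high control.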
On the technique in general: With HiBiT, luminescence reflects the tagged protein that the partner subunit can reach.

The target in the next assay is T2, KRAS G12V (Homo sapiens, UniProt P01116, G12V).
T2 construct: SW620-KRAS (G12V)-HiBit-KI cell (Pharmaron); host or cells: SW620-KRAS (G12V)-HiBit-KI cells (HiBiT knock-in at the endogenous KRAS locus)
T2 sequence (P01116 1-188 isoform P01116-2 G12V): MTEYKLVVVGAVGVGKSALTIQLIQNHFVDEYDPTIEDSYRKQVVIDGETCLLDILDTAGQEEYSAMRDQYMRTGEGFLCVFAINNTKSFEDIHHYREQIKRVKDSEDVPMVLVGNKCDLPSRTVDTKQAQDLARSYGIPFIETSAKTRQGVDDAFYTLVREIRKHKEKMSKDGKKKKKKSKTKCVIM
The assay can be described thus: KRAS G12V HiBit assay. It counts as cell-based. The conditions noted are these: SW620-KRAS (G12V)-HiBit-KI cells, compound treatment for 24 hours, class symbols. In short, it runs like this: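 HiBiT-tagged KRAS G12V cells treated 24 h with compound in a 3-fold, 10-point series (0.3 mM DMSO stock); lytic HiBiT reagent with LgBiT added after 15 min room-temperature equilibration. Degradation calculated against 0.1% DMSO high control.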

Where [1] appears, read: numeric bounds given in place of class symbols.

T1 sequence (P01116 1-188 isoform P01116-2 G12D): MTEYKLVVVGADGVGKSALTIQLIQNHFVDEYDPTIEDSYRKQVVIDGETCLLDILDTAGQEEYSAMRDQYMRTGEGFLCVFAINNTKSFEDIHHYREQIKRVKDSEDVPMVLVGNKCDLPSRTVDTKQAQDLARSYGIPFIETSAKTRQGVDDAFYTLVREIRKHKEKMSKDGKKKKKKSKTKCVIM

`C#Cc1c(F)ccc2cccc(-c3ncc4c(N5CCC[C@@](C)(O)C5)nc(OC[C@@]56CCCN5[C@H](COC(=O)N5CC(OCC7CCN(c8ccc9c(c8)n(C)c(=O)n9C8CCC(=O)NC8=O)CC7)C5)CC6)nc4c3F)c12` (stereo partly drawn) [Compound 130, ((3S,7aS)-7a-(((7-(8-Ethynyl-7-fluoronaphthalen-1-yl)-8-fluoro-4-((R)-3-hydroxy-3-methylpiperidin-1-yl)pyrido[4,3-d]pyrimidin-2-yl)oxy)methyl)hexahydro-1H-pyrrolizin-3-yl)methyl 3-((1-(1-(2,6-dioxopiperidin-3-yl)-3-methyl-2-oxo-2,3-dihydro-1H-benzo[d]imidazol-5-yl)piperidin-4-yl)methoxy) azetidine-1-carboxylate]: the DC50 is > 300 nM at KRAS G12D (class symbols) and > 100 nM at KRAS G12V.
In the case of `C#Cc1c(F)ccc2cccc(-c3ncc4c(N5CCC[C@@](C)(O)C5)nc(OCC5(CN6CCC(CN7CCN(c8cccc9c8n(C)c(=O)n9C8CCC(=O)NC8=O)CC7)CC6)CC5)nc4c3F)c12` (stereo partly drawn) [Compound 73], the DC50 at KRAS G12D (class symbols) is > 300 nM; at KRAS G12V it was > 100 nM.
With `C#Cc1c(F)ccc2cccc(-c3ncc4c(N5CCC[C@@](C)(O)C5)nc(OC[C@@]56CCCN5[C@H](COC(=O)N5CCC(C7CCN(c8ccc9c(c8)n(C)c(=O)n9C8CCC(=O)NC8=O)CC7)CC5)CC6)nc4c3F)c12` (stereo partly drawn) [Compound 152], the DC50 at KRAS G12D (setting [1]) and on KRAS G12V was > 100 nM in each case.
Turning to `C#Cc1c(F)ccc2cccc(-c3ncc4c(N5CCC[C@@](C)(O)C5)nc(OC[C@@]56CCCN5[C@H](COC(=O)N5CCC(N7CCC(c8ccc9c(c8)n(C)c(=O)n9C8CCC(=O)NC8=O)CC7)CC5)CC6)nc4c3F)c12` (stereo partly drawn) [Compound 128, ((3S,7aS)-7a-(((7-(8-Ethynyl-7-fluoronaphthalen-1-yl)-8-fluoro-4-((R)-3-hydroxy-3-methylpiperidin-1-yl)pyrido[4,3-d]pyrimidin-2-yl)oxy)methyl)hexahydro-1H-pyrrolizin-3-yl)methyl 4-(1-(2,6-dioxopiperidin-3-yl)-3-methyl-2-oxo-2,3-dihydro-1H-benzo[d]imidazol-5-yl)-[1,4′-bipiperidine]-1′-carboxylate], the DC50 at KRAS G12D (class symbols) was > 300 nM; on KRAS G12V it was > 100 nM.
The corresponding values for `C#Cc1c(F)ccc2cc(O)cc(-c3ncc4c(N5CCC[C@@](C)(O)C5)nc(OC[C@@]56CCCN5[C@H](COC(=O)N5CCC(OCCC#Cc7cccc8c7n(C)c(=O)n8C7CCC(=O)NC7=O)CC5)CC6)nc4c3F)c12` (stereo partly drawn) [Compound 127, ((3S,7aS)-7a-(((7-(8-Ethynyl-7-fluoro-3-hydroxynaphthalen-1-yl)-8-fluoro-4-((R)-3-hydroxy-3-methylpiperidin-1-yl)pyrido[4,3-d]pyrimidin-2-yl)oxy)methyl)hexahydro-1H-pyrrolizin-3-yl)methyl 4-((4-(1-(2,6-dioxopiperidin-3-yl)-3-methyl-2-oxo-2,3-dihydro-1H-benzo[d]imidazol-4-yl)but-3-yn-1-yl)oxy)piperidine-1-carboxylate] are < 100 nM and 10 to 100 nM.
With `CCc1c(F)ccc2cc(O)cc(-c3ncc4c(N5CCC(O)CC5)nc(OC[C@@]56CCCN5[C@H](COC(=O)N5CCC7(CC5)CC(N5CCC(c8ccc9c(c8)n(C)c(=O)n9C8CCC(=O)NC8=O)CC5)C7)CC6)nc4c3F)c12` (stereo partly drawn) [Compound 358, ((3S,7aS)-7a-(((7-(8-ethyl-7-fluoro-3-hydroxynaphthalen-1-yl)-8-fluoro-4-(4-hydroxypiperidin-1-yl)pyrido[4,3-d]pyrimidin-2-yl)oxy)methyl)hexahydro-1H-pyrrolizin-3-yl)methyl 2-(4-(1-(2,6-dioxopiperidin-3-yl)-3-methyl-2-oxo-2,3-dihydro-1H-benzo[d]imidazol-5-yl)piperidin-1-yl)-7-azaspiro[3.5]nonane-7-carboxylate], the values for the DC50 at KRAS G12D (class symbols) and on KRAS G12V were < 100 nM and < 10 nM, respectively.
The corresponding values for `CCc1c(F)ccc2cc(O)cc(-c3ncc4c(N5CCC[C@@](C)(O)C5)nc(OC[C@@]56CCCN5[C@H](CNC(=O)c5ccc(CN7CCC(c8ccc9c(c8)n(C)c(=O)n9C8CCC(=O)NC8=O)CC7)cc5F)CC6)nc4c3F)c12` (stereo partly drawn) [Compound 494, 4-((4-(1-(2,6-dioxopiperidin-3-yl)-3-methyl-2-oxo-2,3-dihydro-1H-benzo[d]imidazol-5-yl)piperidin-1-yl)methyl)-N-(((3S,7aS)-7a-(((7-(8-ethyl-7-fluoro-3-hydroxynaphthalen-1-yl)-8-fluoro-4-((R)-3-hydroxy-3-methylpiperidin-1-yl)pyrido[4,3-d]pyrimidin-2-yl)oxy)methyl)hexahydro-1H-pyrrolizin-3-yl)methyl)-2-fluorobenzamide] are < 100 nM and 10 to 100 nM.
Consider `CCc1c(F)ccc2cc(O)cc(-c3ncc4c(N5CCC[C@@](C)(O)C5)nc(OCC56CCCN5C(COCCCN5CCC(c7ccc8c(c7)n(C)c(=O)n8C7CCC(=O)NC7=O)CC5)CC6)nc4c3F)c12` (stereo partly drawn) [Compound 449, 3-(5-(1-(3-((7a-(((7-(8-ethyl-7-fluoro-3-hydroxynaphthalen-1-yl)-8-fluoro-4-((R)-3-hydroxy-3-methylpiperidin-1-yl)pyrido[4,3-d]pyrimidin-2-yl)oxy)methyl)hexahydro-1H-pyrrolizin-3-yl)methoxy)propyl)piperidin-4-yl)-3-methyl-2-oxo-2,3-dihydro-1H-benzo[d]imidazol-1-yl)piperidine-2,6-dione], for which the DC50 on KRAS G12D (setting [1]) was > 100 nM; on KRAS G12V, 10 to 100 nM.
As to `CCc1c(F)ccc2cc(O)cc(-c3ncc4c(N5CCC[C@@](C)(O)C5)nc(OC[C@@]56CCCN5[C@H](COC(=O)N5CCC(CN7CC(c8ccc9c(c8)n(C)c(=O)n9C8CCC(=O)NC8=O)C7)CC5)CC6)nc4c3F)c12` (stereo partly drawn) [Compound 395, ((3S,7aS)-7a-(((7-(8-ethyl-7-fluoro-3-hydroxynaphthalen-1-yl)-8-fluoro-4-((R)-3-hydroxy-3-methylpiperidin-1-yl)pyrido[4,3-d]pyrimidin-2-yl)oxy)methyl)hexahydro-1H-pyrrolizin-3-yl)methyl 4-((3-(1-(2,6-dioxopiperidin-3-yl)-3-methyl-2-oxo-2,3-dihydro-1H-benzo[d]imidazol-5-yl)azetidin-1-yl)methyl)piperidine-1-carboxylate], the DC50 is < 100 nM at KRAS G12D (class symbols) and 10 to 100 nM at KRAS G12V.
With `C#Cc1c(F)ccc2cc(O)cc(-c3ncc4c(N5CCOCC5)nc(OCC5(CN6CCN(CC7CCN(c8ccc9c(c8)n(C)c(=O)n9C8CCC(=O)NC8=O)CC7)CC6)CC5)nc4c3F)c12` (stereo not drawn) [Compound 18, 3-[5-[4-[[4-[[1-[[7-(8-Ethynyl-7-fluoro-3-hydroxy-1-naphthyl)-8-fluoro-4-morpholino-pyrido[4,3-d]pyrimidin-2-yl]oxymethyl]cyclopropyl]methyl]piperazin-1-yl]methyl]-1-piperidyl]-3-methyl-2-oxo-benzimidazol-1-yl]piperidine-2,6-dione], on KRAS G12D (class symbols), the DC50 is > 300 nM and the Dmax was 15 to 50%. Besides, the DC50 at KRAS G12V is > 100 nM.
Turning to `C#Cc1c(F)ccc2cc(O)cc(-c3ncc4c(N5CCC[C@@](C)(O)C5)nc(OCC5(CN6CCC(CN7CCC(c8cccc9c8n(C)c(=O)n9C8CCC(=O)NC8=O)CC7)CC6)CC5)nc4c3F)c12` (stereo partly drawn) [Compound 65], the DC50 at KRAS G12D (class symbols) is < 100 nM; on KRAS G12V, > 100 nM.
On to `C#Cc1c(F)ccc2cc(O)cc(-c3ncc4c(N5CCC[C@@](C)(O)C5)nc(OC[C@@]56CCCN5[C@H](COC(=O)N5CCC(CN7CCC(c8cccc9c8n(C)c(=O)n9C8CCC(=O)NC8=O)CC7)CC5)CC6)nc4c3F)c12` (stereo partly drawn) [Compound 133], for which the DC50 on KRAS G12D (class symbols) was < 100 nM; on KRAS G12V, 10 to 100 nM.
`CCc1c(F)ccc2cc(O)cc(-c3ncc4c(N5CCC[C@@](C)(O)C5)nc(OC[C@@]56CCCN5[C@H](CN5CCC(OCCCc7ccc8c(c7)n(C)c(=O)n8C7CCC(=O)NC7=O)CC5)CC6)nc4c3F)c12` (stereo partly drawn) [Compound 486, 3-(5-(3-((1-(((3S,7aS)-7a-(((7-(8-ethyl-7-fluoro-3-hydroxynaphthalen-1-yl)-8-fluoro-4-((R)-3-hydroxy-3-methylpiperidin-1-yl)pyrido[4,3-d]pyrimidin-2-yl)oxy)methyl)hexahydro-1H-pyrrolizin-3-yl)methyl)piperidin-4-yl)oxy)propyl)-3-methyl-2-oxo-2,3-dihydro-1H-benzo[d]imidazol-1-yl)piperidine-2,6-dione]: the DC50 on KRAS G12D (setting [1]) and on KRAS G12V was > 100 nM throughout.
As to `C[C@H]1CN(CCOCCOc2ccc3c(c2)n(C)c(=O)n3C2CCC(=O)NC2=O)CCCN1c1nccc(-c2noc([C@@]3(C)CCCc4sc(N)c(C#N)c43)n2)n1` (stereo partly drawn) [Compound 209, (4S)-2-amino-4-(3-(2-((2S)-4-(2-(2-((1-(2,6-dioxopiperidin-3-yl)-3-methyl-2-oxo-2,3-dihydro-1H-benzo[d]imidazol-5-yl)oxy)ethoxy)ethyl)-2-methyl-1,4-diazepan-1-yl)pyrimidin-4-yl)-1,2,4-oxadiazol-5-yl)-4-methyl-4,5,6,7-tetrahydrobenzo[b]thiophene-3-carbonitrile], the DC50 at KRAS G12D (class symbols) was > 300 nM; at KRAS G12V, > 100 nM. This compound showed a Dmax at KRAS G12D (class symbols) of 15 to 50%.
